Measurements: paper PMC3079562 (Nature chemical biology, 2011)

Target: T1, NosL (Streptomyces actuosus, UniProt C6FX51)
T1 sequence (C6FX51 1-400): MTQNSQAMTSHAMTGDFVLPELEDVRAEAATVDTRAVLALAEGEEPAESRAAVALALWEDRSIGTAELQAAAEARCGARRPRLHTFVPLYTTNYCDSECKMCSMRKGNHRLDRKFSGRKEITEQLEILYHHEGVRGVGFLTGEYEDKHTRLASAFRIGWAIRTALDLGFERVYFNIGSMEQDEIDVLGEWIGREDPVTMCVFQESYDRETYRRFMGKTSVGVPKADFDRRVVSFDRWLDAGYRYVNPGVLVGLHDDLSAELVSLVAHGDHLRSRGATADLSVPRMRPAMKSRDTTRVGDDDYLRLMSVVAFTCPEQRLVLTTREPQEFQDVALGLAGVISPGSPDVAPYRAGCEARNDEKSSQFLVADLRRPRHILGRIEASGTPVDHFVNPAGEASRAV
Details: with L-Trp; otherwise same

C[S+](CC[C@H](N)C(=O)O)C[C@H]1O[C@@H](n2cnc3c(N)ncnc32)[C@H](O)[C@@H]1O (stereo partly shown) [S-AdoMet]
HPLC-MS of product 5'-deoxyadenosine: S-AdoMet consumption was independent of L-Trp, but significantly enhanced by adding L-Trp
